From PubChem BioAssay AID1259411 (Chemical Carcinogenesis Research Information System (CCRIS), 2018)
Calls of active or inactive are those of the source. The rule behind the calls is not given here.

Tested on: rodent carcinogenicity bioassays, tumor incidence
Experiment: CCRIS carcinogenicity studies
Conditions: Dose: 0, Dose: 0
How it was run: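 Archive of carcinogenicity, mutagenicity, tumor promotion and tumor inhibition results drawn from journals, NCI reports and other sources, expert-reviewed; covers 1985-2011 and is no longer updated.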

Measured: carcinogen call

CN(C)CCOc1ccc(/C(=C(/CCCl)c2ccccc2)c2ccccc2)cc1
inactive: Species: RAT, Strain/Sex: SPRAGUE-DAWLEY/FEMALE, Route: GAVAGE, 12, 24 MG/KG IN 0.5% CARBOXYMETHYLCELLULOSE 1/D 7 D/WK FOR UP TO 12 MO (STUDY DURATION: 15 MO), 12, 24 MG/KG IN 0.5% CARBOXYMETHYLCELLULOSE 1/D 7 D/WK FOR UP TO 12 MO (STUDY DURATION: 15 MO) inactive; negative | Species: RAT, Strain/Sex: SPRAGUE-DAWLEY/FEMALE, Route: ORAL, 0.12, 1.2, 5, 12 MG/KG/D IN DIET FOR DURATION OF STUDY (STUDY DURATION: 104 WK), 0.12, 1.2, 5, 12 MG/KG/D IN DIET FOR DURATION OF STUDY (STUDY DURATION: 104 WK) inactive; negative | Species: RAT, Strain/Sex: SPRAGUE-DAWLEY/MALE, Route: ORAL, 0.12, 1.2, 5, 12 MG/KG/D IN DIET FOR DURATION OF STUDY (STUDY DURATION: 104 WK), 0.12, 1.2, 5, 12 MG/KG/D IN DIET FOR DURATION OF STUDY (STUDY DURATION: 104 WK) inactive; negative

O=c1[nH]c(=O)n(C2CCCO2)cc1F (configuration not stated)
inactive: Species: MOUSE, Strain/Sex: C57BL/CBA/FEMALE, Route: GAVAGE, 40 MG/KG IN 0.2 ML OF A STARCH/WATER SUSPENSION 2/WK FOR 12 MO (STUDY DURATION: LIFETIME) inactive; negative | Species: MOUSE, Strain/Sex: C57BL/CBA/MALE, Route: GAVAGE, 40 MG/KG IN 0.2 ML OF A STARCH/WATER SUSPENSION 2/WK FOR 12 MO (STUDY DURATION: LIFETIME) inactive; negative | Species: RAT, Strain/Sex: WISTAR/FEMALE, Route: GAVAGE, 60 MG/KG IN 0.5 ML OF A STARCH/WATER SUSPENSION 2/WK FOR 12 MO (STUDY DURATION: LIFETIME) inactive; negative | Species: RAT, Strain/Sex: WISTAR/MALE, Route: GAVAGE, 60 MG/KG IN 0.5 ML OF A STARCH/WATER SUSPENSION 2/WK FOR 12 MO (STUDY DURATION: LIFETIME) inactive; negative
